For test [1], the target named is T1, human GPR14-expressing CHO cell (Homo sapiens, UniProt Q9UKP6).
T1 construct: expressed in transfected cells
T1 sequence (Q9UKP6 1-389): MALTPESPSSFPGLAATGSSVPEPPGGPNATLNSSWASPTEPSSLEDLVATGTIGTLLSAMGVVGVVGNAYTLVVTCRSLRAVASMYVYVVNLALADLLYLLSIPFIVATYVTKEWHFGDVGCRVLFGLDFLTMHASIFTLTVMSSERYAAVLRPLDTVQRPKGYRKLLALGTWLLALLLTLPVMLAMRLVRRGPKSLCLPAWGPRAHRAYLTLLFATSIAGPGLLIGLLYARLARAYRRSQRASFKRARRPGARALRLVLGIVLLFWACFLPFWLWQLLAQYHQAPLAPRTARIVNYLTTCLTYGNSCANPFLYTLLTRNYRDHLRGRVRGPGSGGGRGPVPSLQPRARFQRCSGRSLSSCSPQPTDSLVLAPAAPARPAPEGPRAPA
Nature of the test: Change in intracellular calcium concentration in human GPR14-expressing CHO cells (FLIPR), antagonist activity assay. The class given is cell-based. As to conditions: 10µl of 10nM urotensin II added, Fluo3, FLIPR. As for the experimental part:
After the transformant E. coli DH5α/pcDNA3.1-hGPR14 prepared in Reference Example 2 was cultured, plasmid DNA for pcDNA3.1-hGPR1 was prepared by using Plasmid Midi Kit (Qiagen). The plasmid DNA was introduced into CHO dhfr cells using CellPhect Transfection Kit (Amersham Pharmacia Biotech) according to the protocol appended thereto. 10µg of DNA was co-precipitated with calcium phosphate to prepare a suspension which was then added to a 10cm petri dish on which 5 x 10^5 or 1 x 10^6 CHO dhfr^- cells had previously been inoculated 24 hours before then. Cells were cultured in a MEMα medium containing 10% fetal bovine serum for one day, subcultured, and cultured in a selection medium, a MEMα medium containing 0.4 mg/ml G418 (GIBCO BRL) and 10% dialysis fetal bovine serum. Colonies of transformed cells (CHO/hGPR14), which were human GPR14-expessing CHO cells growing in the selection medium, were selected.
GPR14-expressing CHO cells were inoculated on a 96-well plate at 1×10^4 cell/well, cultured for 48 hours, and then washed with 0.1ml of HBSS containing 20mM HEPES(pH7.4), 1% FCS and 1% penicillin-streptomycin (hereinafter referred to as "wash buffer"). Next, 100µl of another wash buffer containing 4µM Fluo3, 0.04% pluronic acid and 2.5mM probenicid (hereinafter referred to as "reaction buffer") was added thereto for reaction at 37°C for 1 hour. […]

Another test deals with T2, human GPR14 (Homo sapiens, UniProt Q9UKP6).
T2 construct: expressed in transfected cells
T2 sequence (Q9UKP6 1-389): T1 sequence (Q9UKP6 1-389)
Description: Inhibition of binding of [125I]-labeled human urotensin II to GPR14 using human GPR14-expressing CHO cell membrane fraction. The settings on record: concentration showing 50% inhibition of human GPR14 binding activity, 1nM [125I]-labeled human urotensin II, 25°C for 3 hours, read-out: Inhibitory concentration. As for the experimental part: To 1 x 10^8 CHO/GPR14 cells were added 10 ml of homogenate buffer (10 mM NaHCO3, 5 mM EDTA, 0.5 mM PMSF, 1µg/ml pepstatin, 4µg/ml E64, 20µg/ml leupeptin), and disrupted using Polytron (12,000 rpm, 1 minute). Cell debris solution was centrifuged at 1,000g for 15 minutes to obtain a supernatant. The supernatant was then […] (in Beckman type 30 rotor, 30,000 rpm, 1 hour), and the resultant precipitant was collected as human GPR14-expressing CHO cell fraction.
Isotope-labeled human urotensin II to be used in experiments for testing inhibition of binding was prepared as described below. 5 µg of human urotensin II (available from Peptide Institute, Inc.) was dissolved in 25µl of 0.4M sodium acetate (pH 5.6). […]
Human GPR14-expressing CHO cell fraction was diluted in a membrane diluting buffer (20mM phosphate buffer (pH7.3), 150mM NaCl, 5mM MgCl2,0.1% BSA, 0.05% CHAPS, 0.5mM PMSF, 0.1µg/ml Pepstatin, 20µg/ml Leupeptin, 4µg/ml E-64) to prepare a solution of cell membrane fraction (protein concentration:3µg/ml) for assay. […] Next, the filter was washed three times with membrane diluting buffer (0.2ml), added with 20µl of Microscinti 20 (Packard), and determined for radioactivity in Topcount (Packard). Specific-binding is calculated by subtracting non-specific binding from the total binding. […]

pIC50: −log10 of the molar value.

With “1-benzyl-6-bromo-2,3-dihydro-1H-pyrrolo [2,3-b] quinoline-4-ylamine [Synthesis Example 1]”, the “urotensin II-induced increase in intracellular calcium concentration” value in test [1] was “inhibited”.

In the case of `Nc1c2c(nc3ccc(Br)cc13)N(Cc1ccccc1)CC2` [compound 2], the pIC50 on human GPR14 is 8.62. The “urotensin II-induced increase in intracellular calcium concentration” value in test [1] is on record as “inhibited”.

With `Nc1c2c(nc3ccccc13)N(Cc1ccccc1)CC2` [compound 3], on human GPR14, the pIC50 was 7.48.

(Values after patent EP1262195A1, “VASOACTIVE AGENTS” (Takeda Chemical Industries, Ltd., priority 2000, dated 2001).)
